Patent US8435790B2, “Methods of modulating lipid concentrations in eukaryotic cells” (The Regents of the University of California, priority 2008, dated 2013)

What was measured:
Drosophila S2 cells [1] = test: Lipid-droplet formation in S2 cells, BODIPY staining and microscopy; type: cell-based; conditions: S2 cells incubated with 1 mM oleate for 24 hours
Description: Lipid-droplet formation in Drosophila Schneider 2 (S2) cells is an excellent system for functional genomic studies with efficient gene inactivation by RNAi^6. In the exemplified methods below, lipid-droplet formation was induced by incubation with 1 mM oleate for 24 hours. […] BODIPY-stained fluorescent signals corresponded to lipid droplets with a red fluorescent protein mCherry^7 fused with LSD1, which localizes exclusively to the surface of lipid droplets^3 (not shown).
Cell culture. Drosophila S2 cells were cultured in Schneider's Drosophila medium (Invitrogen) supplemented with 10% fetal bovine serum and antibiotics (100 unit/ml penicillin and 100 μg/ml streptomycin) at 25° C. as described^32. RNAi treatment of S2 cells were performed as previously described^10. A segment of pBluescript backbone was used as the template for control RNAi (referred as control RNAi thereafter). Transfection of S2 cells was performed using Cellfectin reagent (Invitrogen). Images of live cells were taken using LSM 510 confocal microscope (Carl Zeiss MicroImaging) with a 63× oil immersion lens.
Image analyses. S2 cells (2.7×10^6 cells/ml) were treated with 1 μg dsRNA in 96-well plates for 3 days, and 1 mM oleic acid was added for 24 h. Cells were fixed in 4% paraformaldehyde/PBS (1 h) and stained with DAPI and BODIPY493/503 in PBS (1 h). […]

Drosophila S2 cells [2] = test: Cellular triacylglycerol (TG) content of S2 cells; type: cell-based; conditions: S2 cells incubated with 1 mM oleate for 24 hours; means of three experiments, P<0.05
Description: FIG. 1A is series of micrographs of S2 cells incubated for 24 hours without (upper) or with (lower) 1 mM oleate. Staining with BODIPY, phase-contrast image, and overlay are shown. FIG. 1B is a graph showing that oleate-loaded cells have an increased triacylglycerol (TG) content. Cells were incubated as in FIG. 1a and their TG (triglyceride) contents were measured. Results are means and s.d. for three experiments; P<0.05. FIG. 1C is a series of micrographs showing that lipid droplet formation occurs in steps. Single cells were followed by four-dimensional confocal time-lapse photography. Representative maximum projections of three-dimensional stacks at the indicated times are shown. Scale bar is 3 μm.
Lipid measurements. Cells were cultured in 6-well plates (16 μg dsRNAs each well) for 3 days, and then 1 mM oleate was added for 24 hours. Cells were lysed in 50 mM Tris-HCl (pH 7.4), 0.25 M sucrose, and samples (250 μg protein) were assayed for lipids. PC was quantified with a colorimetric method^29. TG content was measured from extracted lipids by TLC^30.

CCCCCCCC/C=C\CCCCCCCC(=O)O [oleate, Oleic acid]
lipid droplet size, number, and overall volume (BODIPY staining) (Drosophila S2 cells [1]): increased
cellular triacylglycerol (TG) content (Drosophila S2 cells [2]): increased sevenfold
